Here are results for four compounds from patent US20250057740A1, “Stable Stannous Oral Care Product” (Colgate-Palmolive Company, priority 2018, published 2025).

A short description of data set [1]: Stability of stannous ions over 35 days at 60° C. (FIG. 3).
Protocol: Stability of stannous ions is assessed over a period of 35 days.
The conditions of data set [2]: aqueous Sn (II) with the named additive, 35 days. How it is done: Stability of Sn (II) in aqueous solutions, and the ability of various additives to affect this stability, is assessed.
The conditions of data set [3]: in water; cited from earlier work.

In the case of `O=P([O-])([O-])OP(=O)([O-])[O-].[Na+].[Na+].[Na+].[Na+]` [TSPP, tetrasodium pyrophosphate], the “oxidative stability of stannous” value in data set [1] (SnF2 in the presence of the named additive) is “no oxidative stability is observed”. Consider `O.O.O.O.O=P([O-])([O-])[O-].O=P([O-])([O-])[O-].[Zn+2].[Zn+2].[Zn+2]` [Zinc phosphate, zinc phosphate], for which the “prevention of the stannous-to-stannic oxidation” value in data set [2] was “positive impact”. The Ksp in data set [3] is listed as ~10^−35. `O=P(O)(O)O` [phosphoric acid]: the stannous oxidized in data set [1] (stannous fluoride in the presence of the named additive) is 8-9%. Take `[F][Sn][F]` [stannous fluoride, reference compound]: the stannous oxidized in data set [1] (stannous fluoride alone) is on record as roughly 80%.
